Tests used:
[1] = system: enzyme in the blood vessels that is responsible for H2S production (rat aorta homogenate, VSMC, intact tail artery); experiment: Real-time H2S production in rat vascular samples supplied with L-cysteine and PLP; type: biochemical; details: added after L-cysteine and PLP; FIG. 6
Excerpt: In general, the following biological samples are bathed in the potassium phosphate buffer (PBS) described above. The specific procedures are found in Doeller, J. E., Isbell, T. S., Benavides, G., Koenitzer, J., Patel, H., Patel, P. P., Lancaster, J. R. Jr., Darley-Usmar, V. M., and Kraus, D. W.; Polarographic measurement of hydrogen sulfide production and consumption by mammalian tissues; Anal. Biochem.; (2005) 341: 40-51, the contents of which are incorporated by reference herein.
FIG. 6 illustrates measurement of real-time H2S production in rat aorta homogenate (Aorta homogenate), cultured rat vascular smooth muscle cells (VSMC) and living rat tail artery (Intact Tail Artery). After supplying each of the samples with the amino acid L-cysteine and the vitamin pyridoxal […] (PLP), both substrate and cofactor respectively, for the enzyme in the blood vessels that is responsible for H2S production, a rise in solution H2S concentration is observed.

[2] = H2S→H++HS−; HS−→S2−+H+; cited from earlier work
[3] = system: mitochondria isolated from marine mussel gills; experiment: O2 consumption of a mitochondria suspension isolated from mussel gills in a closed chamber; design: species or system ribbed mussel Geukensia demissa; details: injections of 12.5 μM sulfide, FIG. 5A
Excerpt: The cellular organelle responsible for O2 consumption in biological cells is the mitochondrion. […] Such rapid kinetic events could not be adequately followed with standard colorimetric methods for H2S determination.
Mitochondria were isolated using the isolation procedure referenced in Parrino, V., D. W. Kraus and J. E. Doeller; ATP production from the oxidation of sulfide in gill mitochondria of the ribbed mussel Geukensia demissa; J. Exp. Biol.; (2000) 203:2209-2218, the contents of which are incorporated by reference herein. The mitochondria were suspended in an aqueous salt- and sucrose-containing buffer described in the Parrino reference.
In FIG. 5A two traces show the real-time concentrations of H2S and O2 in a closed chamber containing a mitochondria suspension isolated from mussel gills. The lower trace is H2S concentration and the upper trace is O2 concentration from a different sensor. […] As the chamber O2 is exhausted the sulfide is consumed much more slowly. In FIG. 5B the derivatives (H2S as lower trace and O2 as upper trace) of the traces in FIG. 5A are shown.

[4] = system: isolated rat aorta; experiment: Vessel tension organ bath with isolated rat aorta segments; details: aorta pre-contracted with 100 nM phenylephrine; FIG. 7
Method: Individual segments, 4 mm long and 1.5 mm in diameter, are tethered between the bath floor and a sensitive force transducer above the bath in order to measure any vasorelaxation as a decrease in tension. An electrochemical H2S sensor (PHSS) is also immersed in the bath to simultaneously report the H2S concentration. The aorta vessels are first contracted by adding 100 nM phenylephrine, PE, to the bath to stimulate physiological vessel tension. […] Measurement of such an acute response of blood vessels to H2S concentration is only possible with the hydrogen sulfide detection apparatus comprising the PHSS.

N#CC[C@H](N)C(=O)O [BCA, beta-cyanoalanine]
effect on H2S production [1]: limit any further H2S production

S [H2S, Hydrogen sulfide]
pKa [2]: 6.88

S [HS^−]
pKa [2]: 14.15

[Na+].[Na+].[S-2] [Na2S]
effect on O2 consumption [3]: stimulate O2 consumption
vessel tension (vasorelaxation) [4]: immediate vasorelaxation event

From patent publication US20120073988A1, “Sensor for Measurement of Hydrogen Sulfide” (priority 2004, published 2012)
